{
  "source": "patent EP0211268B1",
  "about": "“Slow-release topical formulations” (Zappia, Vincenzo, priority 1985, dated 1987)",
  "experiment": "equilibrium dialysis test (slow release of minoxidil ion through a dialysis membrane)",
  "assay_type": "physicochemical",
  "settings": "10 ml solution containing 0.45 mmoles, pH 4.4, equilibrated through a dialytic barrier with 130 ml of water at pH 4.4",
  "source_text": "A direct experimental evidence of the slow-release mechanism, characterizing the minoxidil-polyanion salts, is obtained by dialysis equilibrium tests, as shown in the enclosed Figure. […] If the dialysis solution is substituted, the equilibrium is recovered after dissociation of a further amount of salt. This process mimicks \"in vitro\" the drug's slow release action at the skin level, characterized by a constant and uniform absorption of the active principle, whose availability in time is provided by the continuous dissociation of the salt.\nWhen the equilibrium conditions are reached at the points marked by the arrows, the equilibrium solution is removed, substituting it with 130 ml of water, till reestablishment of the new equilibrium conditions.",
  "data": [
    {"smiles": "Cl.Nc1cc(N2CCCCC2)nc(N)[n+]1[O-]", "note": "[minoxidil chloride]", "values": [
      {"measurement": "minoxidil found outside the dialysis membrane at equilibrium", "value": "about 90%"}
    ]}
  ]
}
